Tests used:
[1] = tested on: Subjects With Active Crohn's Disease With Evidence of Mucosal Ulceration; assay: Study 3 - Alanine Aminotransferase (ALT) levels; assay type: in vivo, human
From the text: Double-Blind, Randomized, Placebo-Controlled, Multi-Centre Study to Investigate the Efficacy and Safety of Compound 1 in Subjects With Active Crohn's Disease With Evidence of Mucosal Ulceration. This is a double-blind, randomized, placebo-controlled, multi-centre Phase 2 study to investigate the efficacy and safety of Compound 1 administered once daily for the treatment of active CD with evidence of mucosal ulceration. The pharmacokinetics (including a PK substudy) and pharmacodynamics of Compound 1 and metabolite in CD will also be characterised. A total of 180 eligible subjects will be randomized to receive Compound 1 or placebo in addition to their stable background treatment (eg, corticosteroids, aminosalicylates, or CD-related antibiotics). The study will consist of 2 parts, with total treatment duration of 20 weeks. Randomization in Part 1 will be stratified according the subject's previous anti-TNF exposure/response, CRP level at Screening, and oral corticosteroid use at visit Day −1. After the first 10 weeks of treatment in Part 1, patients will be re-randomized for Part 2 as shown in the diagram below and will be stratified according to the subject's clinical response, previous anti-TNF exposure/response, and oral corticosteroid use at visit Day -1. [table] ALT levels determination is available at Quest Diagnostics, Clinical Trials, Quest House, 125-135 Staines Road, Hounslow, Middlesex, TW3 3JB, United Kingdom under Catalogue n#84460. ALT catalyzes the exchange of the amino group of alanine with the oxogroup of 2-ketoglutarate to form pyruvate and glutamate. In the presence of lactic dehydrogenase, pyruvate reacts with NADH to form NAD+, measured spectrophotometrically. Guidelines for the ALT value have been issued by the association for Clinical Biochemistry and Laboratory Medicine, 130-132 Tooley Street LONDON SE1 2TU, united Kingdom, wherein the ALT value should be below 34 U/l in Female and below 52 U/L in male.

[2] = tested on: Subjects With Active Crohn's Disease With Evidence of Mucosal Ulceration; assay: Study 3 - Fecal calprotectin levels; assay type: in vivo, human; details: 200 mg; week 10; LOCF
From the text: Double-Blind, Randomized, Placebo-Controlled, Multi-Centre Study to Investigate the Efficacy and Safety of Compound 1 in Subjects With Active Crohn's Disease With Evidence of Mucosal Ulceration.
This is a double-blind, randomized, placebo-controlled, multi-centre Phase 2 study to investigate the efficacy and safety of Compound 1 administered once daily for the treatment of active CD with evidence of mucosal ulceration. The pharmacokinetics (including a PK substudy) and pharmacodynamics of Compound 1 and metabolite in CD will also be characterised.
A total of 180 eligible subjects will be randomized to receive Compound 1 or placebo in addition to their stable background treatment (eg, corticosteroids, aminosalicylates, or CD-related antibiotics). The study will consist of 2 parts, with total treatment duration of 20 weeks. Randomization in Part 1 will be stratified according the subject's previous anti-TNF exposure/response, CRP level at Screening, and oral corticosteroid use at visit Day −1.
After the first 10 weeks of treatment in Part 1, patients will be re-randomized for Part 2 as shown in the diagram below and will be stratified according to the subject's clinical response, previous anti-TNF exposure/response, and oral corticosteroid use at visit Day -1.
Fecal calprotectin is a protein belonging to the S100 family and occurring in large amounts in neutrophil granulocytes, where it accounts for 5% of total proteins and 60% of cytoplasm proteins. When inflammatory processes occur, calprotectin is released due to the degranulation of neutrophil granulocytes.
In bowel inflammation, calprotectin may be detected in the stool. The fecal levels provide direct information about the inflammation and is determined using a Calprest® enzyme immunoassay diagnostic kit (Eurospital Spa—Via Flavia 122-34147 Trieste—Italy; ref 9031).

[3] = 10 weeks results, 200 mg q.d., week 2
[4] = 10 weeks results, 200 mg q.d., week 4
[5] = 10 weeks results, 200 mg q.d., week 6
[6] = 10 weeks results, 200 mg q.d., week 10
[7] = 20 weeks results, 200 mg q.d. week 0 to 10, to 100 mg q.d. week 10 to 20, week 2
[8] = 20 weeks results, 200 mg q.d. week 0 to 10, to 100 mg q.d. week 10 to 20, week 4
[9] = 20 weeks results, 200 mg q.d. week 0 to 10, to 100 mg q.d. week 10 to 20, week 6
[10] = 20 weeks results, 200 mg q.d. week 0 to 10, to 100 mg q.d. week 10 to 20, week 10
[11] = 20 weeks results, 200 mg q.d. week 0 to 10, to 100 mg q.d. week 10 to 20, week 12
[12] = 20 weeks results, 200 mg q.d. week 0 to 10, to 100 mg q.d. week 10 to 20, week 16
[13] = 20 weeks results, 200 mg q.d. week 0 to 10, to 100 mg q.d. week 10 to 20, week 20
[14] = 20 weeks results, 200 mg q.d. week 0 to 10, to placebo week 10 to 20, week 2
[15] = 20 weeks results, 200 mg q.d. week 0 to 10, to placebo week 10 to 20, week 4
[16] = 20 weeks results, 200 mg q.d. week 0 to 10, to placebo week 10 to 20, week 6
[17] = 20 weeks results, 200 mg q.d. week 0 to 10, to placebo week 10 to 20, week 10
[18] = 20 weeks results, 200 mg q.d. week 0 to 10, to placebo week 10 to 20, week 12
[19] = 20 weeks results, 200 mg q.d. week 0 to 10, to placebo week 10 to 20, week 16
[20] = 20 weeks results, 200 mg q.d. week 0 to 10, to placebo week 10 to 20, week 20
[21] = 20 weeks results, continued 200 mg q.d., week 2
[22] = 20 weeks results, continued 200 mg q.d., week 4
[23] = 20 weeks results, continued 200 mg q.d., week 6
[24] = 20 weeks results, continued 200 mg q.d., week 10
[25] = 20 weeks results, continued 200 mg q.d., week 12
[26] = 20 weeks results, continued 200 mg q.d., week 16
[27] = 20 weeks results, continued 200 mg q.d., week 20
[28] = 20 weeks results, placebo week 0 to 10, to 100 mg q.d. week 10 to 20, week 12
[29] = 20 weeks results, placebo week 0 to 10, to 100 mg q.d. week 10 to 20, week 16
[30] = 20 weeks results, placebo week 0 to 10, to 100 mg q.d. week 10 to 20, week 20

## O=C(Nc1nc2cccc(-c3ccc(CN4CCS(=O)(=O)CC4)cc3)n2n1)C1CC1 [Compound 1, cyclopropanecarboxylic acid {5-[4-(1,1-dioxo-thiomorpholin-4-ylmethyl)-phenyl]-[1,2,4]triazolo[1,5-a]pyridin-2-yl}-amide]
[1]; [3]
  Study 3 - ALT Mean CFB: 0.0 IU/L
  Study 3 - ALT Mean percentage CFB: 8.3%
[1]; [4]
  Study 3 - ALT Mean CFB: −0.6 IU/L
  Study 3 - ALT Mean percentage CFB: 5.8%
[1]; [5]
  Study 3 - ALT Mean CFB: −1.2 IU/L
  Study 3 - ALT Mean percentage CFB: 3.1%
[1]; [6]
  Study 3 - ALT Mean CFB: 1.6 IU/L
  Study 3 - ALT Mean percentage CFB: 24.4%
[1]; [7]
  Study 3 - ALT Mean CFB: −2.03 IU/L
  Study 3 - ALT Mean percentage CFB: −4.84%
[1]; [8]
  Study 3 - ALT Mean CFB: −1.93 IU/L
  Study 3 - ALT Mean percentage CFB: −3.24%
[1]; [9]
  Study 3 - ALT Mean CFB: −1.60 IU/L
  Study 3 - ALT Mean percentage CFB: −0.60%
[1]; [10]
  Study 3 - ALT Mean CFB: −0.50 IU/L
  Study 3 - ALT Mean percentage CFB: 5.92%
[1]; [11]
  Study 3 - ALT Mean CFB: 0.03 IU/L
  Study 3 - ALT Mean percentage CFB: 3.56%
[1]; [12]
  Study 3 - ALT Mean CFB: 0.21 IU/L
  Study 3 - ALT Mean percentage CFB: 8.83%
[1]; [13]
  Study 3 - ALT Mean CFB: 6.15 IU/L
  Study 3 - ALT Mean percentage CFB: 38.62%
[1]; [14]
  Study 3 - ALT Mean CFB: −2.30 IU/L
  Study 3 - ALT Mean percentage CFB: 3.63%
[1]; [15]
  Study 3 - ALT Mean CFB: −2.04 IU/L
  Study 3 - ALT Mean percentage CFB: 8.87%
[1]; [16]
  Study 3 - ALT Mean CFB: −3.78 IU/L
  Study 3 - ALT Mean percentage CFB: 1.03%
[1]; [17]
  Study 3 - ALT Mean CFB: −1.48 IU/L
  Study 3 - ALT Mean percentage CFB: 12.60%
[1]; [18]
  Study 3 - ALT Mean CFB: 1.48 IU/L
  Study 3 - ALT Mean percentage CFB: 16.15%
[1]; [19]
  Study 3 - ALT Mean CFB: 1.90 IU/L
  Study 3 - ALT Mean percentage CFB: 23.87%
[1]; [20]
  Study 3 - ALT Mean CFB: −0.38 IU/L
  Study 3 - ALT Mean percentage CFB: 17.82%
[1]; [21]
  Study 3 - ALT Mean CFB: 1.46 IU/L
  Study 3 - ALT Mean percentage CFB: 14.82%
[1]; [22]
  Study 3 - ALT Mean CFB: 0.36 IU/L
  Study 3 - ALT Mean percentage CFB: 8.36%
[1]; [23]
  Study 3 - ALT Mean CFB: −0.17 IU/L
  Study 3 - ALT Mean percentage CFB: 5.47%
[1]; [24]
  Study 3 - ALT Mean CFB: 3.75 IU/L
  Study 3 - ALT Mean percentage CFB: 38.09%
[1]; [25]
  Study 3 - ALT Mean CFB: 3.00 IU/L
  Study 3 - ALT Mean percentage CFB: 26.61%
[1]; [26]
  Study 3 - ALT Mean CFB: 4.04 IU/L
  Study 3 - ALT Mean percentage CFB: 33.15%
[1]; [27]
  Study 3 - ALT Mean CFB: 2.53 IU/L
  Study 3 - ALT Mean percentage CFB: 22.15%
[1]; [28]
  Study 3 - ALT Mean CFB: −0.55 IU/L
  Study 3 - ALT Mean percentage CFB: 10.24%
[1]; [29]
  Study 3 - ALT Mean CFB: −1.95 IU/L
  Study 3 - ALT Mean percentage CFB: 2.75%
[1]; [30]
  Study 3 - ALT Mean CFB: −2.05 IU/L
  Study 3 - ALT Mean percentage CFB: 4.96%
[2]
  Fecal calprotectectin normalizing high to normal (<50 mg/kg), % subjects normalizing: 12%
  Fecal calprotectectin normalizing high to normal (>250 mg/kg to ≤250 mg/kg), % subjects normalizing: 44%
  Fecal calprotectin mean, % CFB: 73%
  Fecal calprotectin mean, CFB: -86.7 mg/kg
  Fecal calprotectin median, % CFB: −29%
  Fecal calprotectin median, CFB: -75.5 mg/kg
